This is an account of results in patent publication US20250051332A1 (priority 2022, published 2025).

Common to all, as to assay: PDSP radioligand displacement binding
Holding throughout (details): average of three independent trials
(In general: Loss of bound radioactivity is the signal in a displacement assay; it reports binding, not function.)

The target in series [1] is T1, Alpha2B (Homo sapiens, UniProt P18089).
T1 sequence (P18089 1-450): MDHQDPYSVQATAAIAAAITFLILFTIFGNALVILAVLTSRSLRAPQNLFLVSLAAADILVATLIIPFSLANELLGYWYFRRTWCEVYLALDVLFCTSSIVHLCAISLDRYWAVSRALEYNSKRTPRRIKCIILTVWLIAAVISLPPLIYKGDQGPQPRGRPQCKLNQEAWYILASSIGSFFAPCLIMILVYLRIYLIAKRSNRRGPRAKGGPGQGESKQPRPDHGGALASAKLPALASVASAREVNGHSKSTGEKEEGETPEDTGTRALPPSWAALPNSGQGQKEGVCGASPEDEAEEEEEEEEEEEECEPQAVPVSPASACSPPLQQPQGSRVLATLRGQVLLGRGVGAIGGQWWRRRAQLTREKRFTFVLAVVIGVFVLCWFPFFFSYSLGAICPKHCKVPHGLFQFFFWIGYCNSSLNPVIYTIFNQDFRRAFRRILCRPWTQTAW

The target in series [2] is DOR (Homo sapiens, UniProt P41143).
Sequence of DOR (P41143 whole entry): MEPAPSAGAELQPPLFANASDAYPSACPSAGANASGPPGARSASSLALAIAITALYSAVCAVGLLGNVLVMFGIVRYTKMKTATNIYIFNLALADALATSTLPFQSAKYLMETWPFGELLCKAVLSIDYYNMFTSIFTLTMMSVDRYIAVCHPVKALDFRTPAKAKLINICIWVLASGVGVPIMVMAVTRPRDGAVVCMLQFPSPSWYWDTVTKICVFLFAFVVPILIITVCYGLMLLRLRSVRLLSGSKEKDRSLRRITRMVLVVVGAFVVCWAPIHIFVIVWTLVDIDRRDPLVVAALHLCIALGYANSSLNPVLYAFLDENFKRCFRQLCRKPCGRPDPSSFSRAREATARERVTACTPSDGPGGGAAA
Series [3] deals with NET (Homo sapiens, UniProt P23975).
Sequence of NET (P23975 whole entry): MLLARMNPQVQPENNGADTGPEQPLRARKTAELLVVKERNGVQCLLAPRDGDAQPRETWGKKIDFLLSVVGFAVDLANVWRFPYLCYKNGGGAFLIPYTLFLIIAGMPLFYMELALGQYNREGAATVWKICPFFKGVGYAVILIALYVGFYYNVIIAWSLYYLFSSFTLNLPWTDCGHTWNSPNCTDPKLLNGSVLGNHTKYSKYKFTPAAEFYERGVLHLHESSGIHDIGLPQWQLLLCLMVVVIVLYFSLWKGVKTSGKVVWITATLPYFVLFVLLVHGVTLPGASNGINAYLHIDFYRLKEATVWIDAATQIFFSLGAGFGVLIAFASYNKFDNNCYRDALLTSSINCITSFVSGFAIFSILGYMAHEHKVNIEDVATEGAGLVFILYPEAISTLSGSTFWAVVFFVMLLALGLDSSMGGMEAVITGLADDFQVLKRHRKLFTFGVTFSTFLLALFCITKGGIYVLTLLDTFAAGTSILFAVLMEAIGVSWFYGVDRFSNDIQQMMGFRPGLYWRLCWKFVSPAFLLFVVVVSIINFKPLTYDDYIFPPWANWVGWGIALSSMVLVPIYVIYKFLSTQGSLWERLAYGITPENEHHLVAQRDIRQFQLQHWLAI
In series [4] the target is 5-HT7A (Homo sapiens, UniProt P34969).
Sequence of 5-HT7A (P34969 1-445 isoform P34969-2): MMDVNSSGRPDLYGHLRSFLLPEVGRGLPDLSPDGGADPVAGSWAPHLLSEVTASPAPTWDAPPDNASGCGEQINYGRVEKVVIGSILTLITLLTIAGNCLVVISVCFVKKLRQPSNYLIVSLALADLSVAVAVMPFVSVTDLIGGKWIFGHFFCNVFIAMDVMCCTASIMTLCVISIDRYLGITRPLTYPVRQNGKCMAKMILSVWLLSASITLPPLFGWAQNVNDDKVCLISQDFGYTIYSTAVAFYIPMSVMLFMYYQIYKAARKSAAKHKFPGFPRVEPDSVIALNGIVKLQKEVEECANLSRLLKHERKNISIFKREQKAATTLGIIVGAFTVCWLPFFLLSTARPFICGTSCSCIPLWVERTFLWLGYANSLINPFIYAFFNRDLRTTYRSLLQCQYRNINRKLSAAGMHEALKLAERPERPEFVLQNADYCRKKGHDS
For series [5], the target named is HERG (Homo sapiens, UniProt Q12809).
Sequence of HERG (Q12809 whole entry): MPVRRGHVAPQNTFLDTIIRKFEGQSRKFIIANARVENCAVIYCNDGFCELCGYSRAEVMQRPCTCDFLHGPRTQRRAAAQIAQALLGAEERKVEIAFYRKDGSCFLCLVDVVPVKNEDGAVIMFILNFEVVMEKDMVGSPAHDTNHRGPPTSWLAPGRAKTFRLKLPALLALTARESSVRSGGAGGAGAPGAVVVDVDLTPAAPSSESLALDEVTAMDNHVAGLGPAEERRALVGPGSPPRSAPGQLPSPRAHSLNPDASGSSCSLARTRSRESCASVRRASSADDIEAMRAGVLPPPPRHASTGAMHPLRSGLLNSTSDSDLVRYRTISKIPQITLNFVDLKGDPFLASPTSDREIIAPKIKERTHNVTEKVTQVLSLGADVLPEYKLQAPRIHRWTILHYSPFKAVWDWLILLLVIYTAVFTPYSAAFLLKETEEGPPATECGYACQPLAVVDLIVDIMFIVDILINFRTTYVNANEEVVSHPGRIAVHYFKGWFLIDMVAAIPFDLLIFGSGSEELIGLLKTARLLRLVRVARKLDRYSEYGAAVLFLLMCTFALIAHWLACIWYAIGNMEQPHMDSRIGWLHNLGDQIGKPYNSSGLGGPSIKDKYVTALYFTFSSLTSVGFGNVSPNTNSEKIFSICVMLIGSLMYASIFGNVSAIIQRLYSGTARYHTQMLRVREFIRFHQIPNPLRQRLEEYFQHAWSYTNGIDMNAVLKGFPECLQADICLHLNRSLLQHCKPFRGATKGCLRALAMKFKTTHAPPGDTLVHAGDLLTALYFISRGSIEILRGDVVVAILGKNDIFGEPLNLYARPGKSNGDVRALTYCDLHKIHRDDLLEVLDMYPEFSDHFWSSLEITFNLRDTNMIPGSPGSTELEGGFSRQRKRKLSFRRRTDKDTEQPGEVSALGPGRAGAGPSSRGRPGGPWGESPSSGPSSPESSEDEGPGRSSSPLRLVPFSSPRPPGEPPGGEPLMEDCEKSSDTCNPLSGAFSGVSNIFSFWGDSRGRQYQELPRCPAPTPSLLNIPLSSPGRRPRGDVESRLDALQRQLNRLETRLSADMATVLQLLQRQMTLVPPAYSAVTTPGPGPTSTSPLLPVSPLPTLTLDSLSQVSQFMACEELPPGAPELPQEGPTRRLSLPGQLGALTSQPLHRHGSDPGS
The target of series [6] is T2, Alpha1D (Homo sapiens, UniProt P25100).
T2 sequence (P25100 1-572): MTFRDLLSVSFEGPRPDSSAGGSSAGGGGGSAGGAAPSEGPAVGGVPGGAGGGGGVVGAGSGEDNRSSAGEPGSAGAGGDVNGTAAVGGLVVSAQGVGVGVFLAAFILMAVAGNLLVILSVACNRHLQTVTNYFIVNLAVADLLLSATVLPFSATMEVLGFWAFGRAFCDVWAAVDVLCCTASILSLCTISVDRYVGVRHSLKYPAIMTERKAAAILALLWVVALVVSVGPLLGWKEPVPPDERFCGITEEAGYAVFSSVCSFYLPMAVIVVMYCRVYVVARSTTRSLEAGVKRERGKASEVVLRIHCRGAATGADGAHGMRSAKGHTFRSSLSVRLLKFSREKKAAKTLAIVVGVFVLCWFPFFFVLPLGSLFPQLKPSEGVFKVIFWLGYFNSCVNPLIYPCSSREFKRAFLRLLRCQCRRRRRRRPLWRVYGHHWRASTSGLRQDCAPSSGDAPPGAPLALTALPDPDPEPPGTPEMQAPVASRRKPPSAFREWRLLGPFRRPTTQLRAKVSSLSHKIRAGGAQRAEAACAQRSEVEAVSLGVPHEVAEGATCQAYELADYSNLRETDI

In series [7] the target is Alpha7 (Homo sapiens, UniProt P36544).
Sequence of Alpha7 (P36544 23-502): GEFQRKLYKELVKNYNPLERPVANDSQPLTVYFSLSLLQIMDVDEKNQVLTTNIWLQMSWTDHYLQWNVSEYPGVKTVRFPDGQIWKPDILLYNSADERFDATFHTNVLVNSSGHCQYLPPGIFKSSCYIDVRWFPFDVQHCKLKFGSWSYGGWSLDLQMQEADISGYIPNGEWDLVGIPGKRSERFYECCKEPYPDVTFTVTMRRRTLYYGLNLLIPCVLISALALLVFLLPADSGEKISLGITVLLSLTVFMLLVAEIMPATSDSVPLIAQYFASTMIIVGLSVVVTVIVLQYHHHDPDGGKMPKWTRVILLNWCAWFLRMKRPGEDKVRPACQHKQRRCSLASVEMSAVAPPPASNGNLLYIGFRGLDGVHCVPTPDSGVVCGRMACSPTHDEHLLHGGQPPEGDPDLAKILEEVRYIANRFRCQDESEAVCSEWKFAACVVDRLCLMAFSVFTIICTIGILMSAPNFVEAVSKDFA
The target of series [8] is T3, Alpha1A (Homo sapiens, UniProt P35348).
T3 sequence (P35348 1-466): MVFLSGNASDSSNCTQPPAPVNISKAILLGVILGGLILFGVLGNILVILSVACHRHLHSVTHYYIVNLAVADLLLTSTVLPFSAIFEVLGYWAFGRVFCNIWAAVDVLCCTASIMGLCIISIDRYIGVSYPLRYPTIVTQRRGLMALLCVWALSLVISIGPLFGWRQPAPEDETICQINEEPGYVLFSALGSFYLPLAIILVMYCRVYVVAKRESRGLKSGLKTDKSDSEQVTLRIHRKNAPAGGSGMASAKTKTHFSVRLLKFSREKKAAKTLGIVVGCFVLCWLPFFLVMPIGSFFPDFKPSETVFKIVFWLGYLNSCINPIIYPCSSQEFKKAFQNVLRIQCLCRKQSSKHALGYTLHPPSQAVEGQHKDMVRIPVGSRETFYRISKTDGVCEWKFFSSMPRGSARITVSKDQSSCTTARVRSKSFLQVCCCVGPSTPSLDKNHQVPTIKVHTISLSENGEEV

In series [9] the target is T4, 5-HT3 (Homo sapiens, UniProt P46098).
T4 sequence (P46098 24-478): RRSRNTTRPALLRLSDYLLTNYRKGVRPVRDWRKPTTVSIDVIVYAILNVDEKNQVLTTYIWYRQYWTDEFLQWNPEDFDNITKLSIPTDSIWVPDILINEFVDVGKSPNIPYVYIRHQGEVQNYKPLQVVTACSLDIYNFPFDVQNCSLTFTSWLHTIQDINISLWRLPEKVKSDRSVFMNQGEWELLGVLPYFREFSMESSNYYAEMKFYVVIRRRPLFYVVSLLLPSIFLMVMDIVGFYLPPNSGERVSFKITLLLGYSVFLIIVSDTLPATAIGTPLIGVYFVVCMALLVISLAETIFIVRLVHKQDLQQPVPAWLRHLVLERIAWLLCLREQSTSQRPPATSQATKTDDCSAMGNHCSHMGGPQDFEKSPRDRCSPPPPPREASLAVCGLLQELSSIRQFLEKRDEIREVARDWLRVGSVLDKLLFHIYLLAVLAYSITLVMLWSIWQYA

Series [10] deals with T5, Alpha2C (Homo sapiens, UniProt P18825).
T5 sequence (P18825 1-462): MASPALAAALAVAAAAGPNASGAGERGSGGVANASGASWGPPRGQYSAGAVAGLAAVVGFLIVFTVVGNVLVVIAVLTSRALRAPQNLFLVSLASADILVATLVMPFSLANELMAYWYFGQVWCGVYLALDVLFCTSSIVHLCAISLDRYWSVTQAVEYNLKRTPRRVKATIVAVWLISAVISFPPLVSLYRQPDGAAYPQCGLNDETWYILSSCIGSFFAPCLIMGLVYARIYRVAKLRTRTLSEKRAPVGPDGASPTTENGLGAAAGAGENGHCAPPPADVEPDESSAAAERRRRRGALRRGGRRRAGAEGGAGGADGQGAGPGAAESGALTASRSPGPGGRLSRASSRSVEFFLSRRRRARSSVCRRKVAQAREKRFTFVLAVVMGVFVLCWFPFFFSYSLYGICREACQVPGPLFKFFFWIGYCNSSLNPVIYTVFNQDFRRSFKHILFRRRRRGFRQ

The target of series [11] is MOR (Homo sapiens, UniProt P35372).
Sequence of MOR (P35372 whole entry): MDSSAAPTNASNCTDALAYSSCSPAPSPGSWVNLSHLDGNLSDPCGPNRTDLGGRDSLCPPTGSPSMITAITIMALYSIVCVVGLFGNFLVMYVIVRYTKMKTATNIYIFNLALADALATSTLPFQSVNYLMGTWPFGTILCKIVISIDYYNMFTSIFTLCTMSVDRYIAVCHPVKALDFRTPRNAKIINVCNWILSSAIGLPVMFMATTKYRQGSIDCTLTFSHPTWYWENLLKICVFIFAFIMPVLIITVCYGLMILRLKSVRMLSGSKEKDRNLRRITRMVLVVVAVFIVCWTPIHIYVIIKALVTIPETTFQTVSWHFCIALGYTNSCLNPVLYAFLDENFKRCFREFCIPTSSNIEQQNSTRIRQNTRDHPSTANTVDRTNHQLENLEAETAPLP

With `C/C=C1/CN2CC[C@]34C(=C(C(=O)OC)[C@H]1C[C@H]23)Nc1ccc(Br)cc14` [Compound 2, 10-Bromoakuammicine], the inhibitory constant (Ki) in series [1] came to 1250 nM; in [4], 1520 nM; in series [5] it was 1340 nM; in series [7] it was 7000 nM; in series [8], 1000 nM; in [9], 210 nM. Further, affinity in series [10] was put at a Ki of 2910 nM. Further, the “Ki (nM) at DOR” value in series [2] is “— (“—” indicates compound produced less than 50% displacement of radioligand in primary binding screen at 10 μM.)”. Besides, the “Ki (nM) at NET” value in [3] is reported as “— (“—” indicates compound produced less than 50% displacement of radioligand in primary binding screen at 10 μM.)”. In addition, the “Ki (nM) at Alpha1D” value in series [6] is on record as “— (“—” indicates compound produced less than 50% displacement of radioligand in primary binding screen at 10 μM.)”. Moreover, the “Ki (nM) at MOR” value in [11] was “— (“—” indicates compound produced less than 50% displacement of radioligand in primary binding screen at 10 μM.)”.

As to `C/C=C1/CN2CC[C@]34C(=C(C(=O)OC)[C@H]1C[C@H]23)Nc1ccc(I)cc14` [Compound 3, 10-Iodoakuammicine], in [1], the “Ki (nM) at Alpha2B” value is reported as “— (“—” indicates compound produced less than 50% displacement of radioligand in primary binding screen at 10 μM.)”. Besides, the “Ki (nM) at DOR” value in [2] is on record as “— (“—” indicates compound produced less than 50% displacement of radioligand in primary binding screen at 10 μM.)”. Further, the Ki in [3] stood at 3440 nM; in [4] it was 1380 nM; in [5], 1100 nM; in series [6], 1140 nM; in series [7], 5490 nM; in series [8], 883 nM. In addition, the Ki turned out to be 384 nM in series [9] and 2860 nM in series [10]. In addition, in [11], the “Ki (nM) at MOR” value is on record as “— (“—” indicates compound produced less than 50% displacement of radioligand in primary binding screen at 10 μM.)”.

What is called Ki is the dissociation constant of the complex between target and ligand, obtained from inhibition or displacement. Lower therefore signals tighter binding.
